Laboratory results as given in patent publication US10280198B2, “Therapeutic agents for reducing parathyroid hormone levels” (KAI PHARMACEUTICALS, INC., priority 2009, dated 2019).
Where two headings read alike, the source gives them in different places. Square brackets hold non-standard residues; d marks the D form. Peptide text beside a SMILES is read from it.

Legend:
[1] = test system: rat peritoneal mast cells; test: In vitro histamine induction in rat peritoneal mast cells; assay type: cell-based
Description: To further evaluate the relationship between compound structure and histamine release, a series of compounds was prepared and assessed for their ability to trigger induction of histamine in an in vitro assay using rat peritoneal mast cells. In this assay, compounds are incubated at 10 μM for 15 minutes at 37° C. with cells isolated from peritoneal lavage of SD rats. Following incubation, cell medium is collected and histamine is determined.
Accordingly, and as can be appreciated in view of the PTH data and the histamine data described hereinabove, in one embodiment, a compound that has activity to decrease PTH level in a subject in the absence of a histamine response is contemplated. In certain embodiments, absence of a histamine response intends a dose of the compound that produces a less than 10-fold, more preferably 8-fold, still more preferably 5-fold, and even still more preferably 3-fold, increase in histamine, measured in vitro in an assay as described herein, where the fold change is determined based on histamine levels before incubation with the compound and after 15 minutes incubation with compound. In a specific embodiment, the histamine response is determined in an in vitro assay using rat peritoneal mast cells isolated from peritoneal lavage of normal Sprague Dawley rats, and where the fold change is determined based on histamine levels before incubation with the compound and after 15 minutes incubation with compound. In the studies conducted herein, the in vitro evaluation of histamine release was performed using isolated rat peritoneal mast cells isolated by peritoneal lavage using cold HBSS+25 mM HEPES pH 7.4 containing heparin (5 u/mL). Cells were washed twice in stimulation buffer (HBSS+25 mM HEPES pH 7.4) and incubated with 10 μM of compound in stimulation buffer (HBSS+25 mM HEPES pH 7.4) for 15 minutes in a 96-well plate ([…]) at 37° C. Cell supernatant was analyzed for histamine using histamine EIA kit (Cayman #589651).
For in vitro evaluation of histamine release, isolated rat peritoneal mast cells were isolated by performing peritoneal lavage using cold HBSS+25 mM HEPES pH 7.4 containing heparin (5 u/mL). Cells were washed twice in stimulation buffer (HBSS+25 mM HEPES pH 7.4) and incubated with 10 μM of compound in stimulation buffer (HBSS+25 mM HEPES pH 7.4) for 15 minutes in a 96-well plate (10^6/well) at 37° C. Cell supernatant was analyzed for histamine using histamine EIA kit (Cayman #589651).

[2] = test system: plasma PTH; test: In vivo PTH lowering after IV bolus in isoflurane-anesthetized normal Sprague Dawley rats; set-up: species or system rat; details: for % PTH reduction of baseline at 1 hour post IV administration of 0.5 mg/kg compound: isoflurane-anesthetized normal rats, 0.5 mg/kg IV; for 0.5 mg/kg IV bolus % PTH AUC of saline control: normal rats, AUC 1-4 h
Description: The peptides were administered intravenously at a dose of 0.5 mg/kg into isoflurane-anesthetized normal Sprague Dawley rats. A control group of rats was treated with saline. Blood was drawn prior to dosing and every hour for 4 hours. Rats were maintained under isoflurane anesthesia for the entire study. […] Percent PTH reduction was calculated according to the following formula: AUCcmpd treated/AUCsaline control*100.
An intravenous (IV) bolus of saline was used as a control. Plasma (K2EDTA) PTH levels were assessed prior to dosing and 1, 2, 3 and 4 hours after dosing. Rats were maintained under isoflurane anesthesia for the entire study. […] In FIG. 2B, PTH is shown as percent of the baseline pre-dose value.
A series of compounds having an L-amino acid residue substituted for a D-amino acid residue were prepared. The compounds were administered as an IV bolus to normal Sprague Dawley rats at a dose of 0.5 mg/kg. An intravenous (IV) bolus of saline was used as a control. […] Rats were maintained under isoflurane anesthesia for the entire study.

Compound	Histamine in vitro Fold change of non-treated at 10 uM [1] [fold]	% PTH reduction of baseline at 1 hour post IV administration of 0.5 mg/kg compound ([2]; Table 2) [%]	0.5 mg/kg IV bolus % PTH AUC of saline control ([2]; Table 2) [%]	0.5 mg/kg IV bolus % PTH AUC of saline control ([2]; Table 6) [%]	Histamine in vitro Fold change of non-treated at 10 uM ([1]; Table 9, 10 μM, 15 minutes, 37° C.) [fold]
CC(=O)N[C@H](CS)C(=O)N[C@H](C)C(=O)N[C@H](CCCNC(=N)N)C(=O)N[C@H](CCCNC(=N)N)C(=O)N[C@H](CCCNC(=N)N)C(=O)N[C@H](Cc1ccccc1)C(=O)N[C@H](CCCNC(=N)N)C(N)=O [SEQ ID NO: 83, Ac-carrrfr-NH2] (Ac-[dC][dA][dR][dR][dR][dF][dR]-NH2)	4.0			177	
CC(=O)N[C@H](CS)C(=O)N[C@H](C)C(=O)N[C@H](CCCNC(=N)N)C(=O)N[C@H](CCCNC(=N)N)C(=O)N[C@H](CCCNC(=N)N)C(=O)N[C@H](CC(C)C)C(=O)N[C@H](CCCNC(=N)N)C(N)=O [SEQ ID NO: 85, Ac-carrrlr-NH2] (Ac-[dC][dA][dR][dR][dR][dL][dR]-NH2)				140	2.5
CC(=O)N[C@H](CS)C(=O)N[C@H](C)C(=O)N[C@H](CCCNC(=N)N)C(=O)N[C@H](CCCNC(=N)N)C(=O)N[C@H](CCCNC(=N)N)C(=O)N1CCC[C@@H]1C(=O)N[C@H](CCCNC(=N)N)C(N)=O [SEQ ID NO: 88, Ac-carrrpr-NH2] (Ac-[dC][dA][dR][dR][dR][dP][dR]-NH2)	1.0			76	
CC(=O)N[C@H](CS)C(=O)N[C@H](C)C(=O)N[C@H](CCCNC(=N)N)C(=O)N[C@H](CCCNC(=N)N)C(=O)N[C@H](CCCNC(=N)N)C(=O)N[C@H](Cc1c[nH]cn1)C(=O)N[C@H](CCCNC(=N)N)C(N)=O [SEQ ID NO: 89, Ac-carrrhr-NH2] (Ac-[dC][dA][dR][dR][dR][dH][dR]-NH2)	2.0			48	
CC(=O)N[C@H](CS)C(=O)N[C@H](C)C(=O)N[C@H](CCCNC(=N)N)C(=O)N[C@H](CCCNC(=N)N)C(=O)N[C@H](CCCNC(=N)N)C(=O)N[C@H](CCC(N)=O)C(=O)N[C@H](CCCNC(=N)N)C(N)=O [SEQ ID NO: 90, Ac-carrrqr-NH2] (Ac-[dC][dA][dR][dR][dR][dQ][dR]-NH2)	0.9			41	
CC(=O)N[C@H](CS)C(=O)N[C@H](C)C(=O)N[C@H](CCCNC(=N)N)C(=O)N[C@H](CCCNC(=N)N)C(=O)N[C@H](CCCNC(=N)N)C(=O)N[C@H](CO)C(=O)N[C@H](CCCNC(=N)N)C(N)=O [SEQ ID NO: 92, Ac-carrrsr-NH2] (Ac-[dC][dA][dR][dR][dR][dS][dR]-NH2)	1.2			6	
CC(=O)N[C@H](CS)C(=O)N[C@H](C)C(=O)N[C@H](CCCNC(=N)N)C(=O)N[C@H](CCCNC(=N)N)C(=O)N[C@H](CCCNC(=N)N)C(=O)NCC(=O)N[C@H](CCCNC(=N)N)C(N)=O [SEQ ID NO: 93, Ac-carrrGr-NH2] (Ac-[dC][dA][dR][dR][dR]G[dR]-NH2)	0.9			5	
CC(=O)N[C@H](CS)C(=O)NCC(=O)N[C@H](CCCNC(=N)N)C(=O)N[C@H](CCCNC(=N)N)C(=O)N[C@H](CCCNC(=N)N)C(=O)N[C@H](C)C(=O)N[C@H](CCCNC(=N)N)C(N)=O [SEQ ID NO: 95, Ac-cGrrrar-NH2] (Ac-[dC]G[dR][dR][dR][dA][dR]-NH2)	1.5			45	
CC(=O)N[C@H](CS)C(=O)N[C@H](CC(C)C)C(=O)N[C@H](CCCNC(=N)N)C(=O)N[C@H](CCCNC(=N)N)C(=O)N[C@H](CCCNC(=N)N)C(=O)N[C@H](C)C(=O)N[C@H](CCCNC(=N)N)C(N)=O [SEQ ID NO: 98, Ac-clrrrar-NH2] (Ac-[dC][dL][dR][dR][dR][dA][dR]-NH2)	2.2			26	

Further lines, with some results ahead:

Histamine in vitro Fold change of non-treated at 10 uM [1] [fold]	Compound	% PTH reduction of baseline at 1 hour post IV administration of 0.5 mg/kg compound ([2]; Table 2) [%]	0.5 mg/kg IV bolus % PTH AUC of saline control ([2]; Table 2) [%]	0.5 mg/kg IV bolus % PTH AUC of saline control ([2]; Table 6) [%]	Histamine in vitro Fold change of non-treated at 10 uM ([1]; Table 9, 10 μM, 15 minutes, 37° C.) [fold]
1.3	CC(=O)N[C@H](CS)C(=O)N[C@H](CCCNC(=N)N)C(=O)N[C@H](CCCNC(=N)N)C(=O)N[C@H](C)C(=O)N[C@H](C)C(=O)N[C@H](CCCNC(=N)N)C(=O)N[C@H](CCCNC(=N)N)C(N)=O [SEQ ID NO: 17, Ac-crraarr-NH2] (Ac-[dC][dR][dR][dA][dA][dR][dR]-NH2)	39	102		
1.4	CC(=O)N[C@H](CS)C(=O)N[C@H](CCCNC(=N)N)C(=O)N[C@H](C)C(=O)N[C@H](CCCNC(=N)N)C(=O)N[C@H](C)C(=O)N[C@H](CCCNC(=N)N)C(=O)N[C@H](CCCNC(=N)N)C(N)=O [SEQ ID NO: 18, Ac-crararr-NH2] (Ac-[dC][dR][dA][dR][dA][dR][dR]-NH2)	72	87		
1.0	CC(=O)N[C@H](CS)C(=O)N[C@H](CCCNC(=N)N)C(=O)N[C@H](CCCNC(=N)N)C(=O)N[C@H](CCCNC(=N)N)C(=O)N[C@H](C)C(=O)N[C@H](C)C(=O)N[C@H](CCCNC(=N)N)C(N)=O [SEQ ID NO: 21, Ac-crrraar-NH2] (Ac-[dC][dR][dR][dR][dA][dA][dR]-NH2)	36	50		
1.2	CC(=O)N[C@H](CS)C(=O)N[C@H](C)C(=O)N[C@H](C)C(=O)N[C@H](CCCNC(=N)N)C(=O)N[C@H](CCCNC(=N)N)C(=O)N[C@H](CCCNC(=N)N)C(=O)N[C@H](CCCNC(=N)N)C(N)=O [SEQ ID NO: 22, Ac-caarrrr-NH2] (Ac-[dC][dA][dA][dR][dR][dR][dR]-NH2)	24	48		
1.0	CC(=O)N[C@H](CS)C(=O)N[C@H](CCCNC(=N)N)C(=O)N[C@H](C)C(=O)N[C@H](C)C(=O)N[C@H](CCCNC(=N)N)C(=O)N[C@H](CCCNC(=N)N)C(=O)N[C@H](CCCNC(=N)N)C(N)=O [SEQ ID NO: 24, Ac-craarrr-NH2] (Ac-[dC][dR][dA][dA][dR][dR][dR]-NH2)	8	9		
1.8	CC[C@@H](C)[C@@H](NC(=O)[C@@H](CCCNC(=N)N)NC(=O)[C@@H](CCCNC(=N)N)NC(=O)[C@@H](CCCNC(=N)N)NC(=O)[C@@H](C)NC(=O)[C@@H](CS)NC(C)=O)C(=O)N[C@H](CCCNC(=N)N)C(N)=O [SEQ ID NO: 84, Ac-carrrir-NH2] (Ac-[dC][dA][dR][dR][dR][dI][dR]-NH2)			161	
1.2	CC(=O)N[C@H](CS)C(=O)N[C@H](C)C(=O)N[C@H](CCCNC(=N)N)C(=O)N[C@H](CCCNC(=N)N)C(=O)N[C@H](CCCNC(=N)N)C(=O)N[C@@H](C(=O)N[C@H](CCCNC(=N)N)C(N)=O)C(C)C [SEQ ID NO: 87, Ac-carrrvr-NH2] (Ac-[dC][dA][dR][dR][dR][dV][dR]-NH2)			79	
1.7	CC(=O)N[C@H](CS)C(=O)N[C@H](C)C(=O)N[C@H](CCCNC(=N)N)C(=O)N[C@H](CCCNC(=N)N)C(=O)N[C@H](CCCNC(=N)N)C(=O)N[C@@H](C(=O)N[C@H](CCCNC(=N)N)C(N)=O)[C@H](C)O [SEQ ID NO: 91, Ac-carrrtr-NH2] (Ac-[dC][dA][dR][dR][dR][dT][dR]-NH2)			18	
3.0	CC[C@@H](C)[C@@H](NC(=O)[C@@H](CS)NC(C)=O)C(=O)N[C@H](CCCNC(=N)N)C(=O)N[C@H](CCCNC(=N)N)C(=O)N[C@H](CCCNC(=N)N)C(=O)N[C@H](C)C(=O)N[C@H](CCCNC(=N)N)C(N)=O [SEQ ID NO: 96, Ac-cirrrar-NH2] (Ac-[dC][dI][dR][dR][dR][dA][dR]-NH2)			33	
